We go through four compounds from US8435975B2, “Steroidal esters of 17-oximino-5-androsten-3beta-ol” (Council of Scientific & Industrial Research, priority 2007, dated 2013).

Structures are written as SMILES. Values joined by “and” are separate entries in the source; they are usually repeats but may differ in a detail not shown here. Identical values can stand only once.

The subject of data set [1] is human prostate cancer cell line (DU-145). Nature of the data set: Growth inhibitory activity assay (MTT assay), in vitro antiproliferative activity. Format: cell-based. As to conditions: DU-145 cells; for % growth inhibition (mean ± SEM) / inhibition at 5 µg/mL: 5.0 μg/ml; for % growth inhibition (mean ± SEM) / inhibition at 0.01 µg/mL / inhibition at 0.5 µg/mL / inhibition at 1 µg/mL / inhibition at 2 µg/mL / inhibition at 5 µg/mL: 48 hr; for inhibition at 0.01 µg/mL / inhibition at 0.5 µg/mL / inhibition at 1 µg/mL / inhibition at 2 µg/mL / inhibition at 5 µg/mL: Homo sapiens, DU-145, 48 h, read-out: % growth inhibition (mean ± SEM); for inhibition at 0.01 µg/mL: 0.01 μg/ml; for inhibition at 0.5 µg/mL: 0.5 μg/ml; for inhibition at 1 µg/mL: 1.0 μg/ml; for inhibition at 2 µg/mL: 2.0 μg/ml; for antiproliferative activity (in words): 0.01-5.0 μg/ml. How it is done:
1) In Vitro Antiproliferative Activity Against Human Prostate Cancer Cell Line (DU-145)
Compounds were screened for antiproliferative activity on human prostate cell line DU-145 at National Centre of Human Genome Studies and Research. Panjab University, Chandigarh. All the compounds (10 to 16), Finasteride and starting material (9) were tested at five different concentrations: 0.01, 0.5, 1.0, 2.0, and 5.0 μg/ml. Finasteride was the positive control in this growth inhibitory assay.
Growth Inhibitory Activity Assay (MTT Assay)
We investigated the effect of newly synthesized compounds on cell growth inhibition using MTT assay. This assay quantifies the viable cells by observing the reduction of tetrazolium salt, MTT to formazan crystals by the live cells. Based on the absorbance of the cell sample after the test is carried out, cell viable can be measured [Loveland, B. E.; Jones, T. G.; Mackay. I. R.; Vaillant, F.; Wang, Z. X.; Hertzog, P. J. Biochem. International 1992, 27, 501 and Wright, S. A.; Thomas, L. N.; Douglas, R. C.; Lazier, C. B.; Rittmaster, R. S. J. Clin. Invest. 1996, 98, 2558]. Cells were cultured at a density of 5×10^3 cells/well in 96 well plates at 37° C. in 5.0% CO2 atmosphere and were allowed to attach for 24 hr. The cells were treated in triplicate with graded concentration of sample and reference drug Finasteride at 37° C. for 48 hr. A 20 μl aliquot of MTT solution was added directly to all the appropriate wells. Following 4 hr of incubation at […], the media was removed and formazan crystals, which results from the reduction of MTT by active cell were dissolved in 100 μl DMSO and vigorously mixed to dissolve the reacted dye. The absorbance of each well was read on Elisa plate reader (Merck) at 570 nm. The spectrometer was calibrated to zero absorbance using culture medium without cells. The relative cell viability (%) related to control well containing cell culture medium without drug was calculated by [A]test/[A]control×100. % Growth Inhibition=[OD]control−[OD]test/[OD]control×100 Results: […]
Background: Tetrazolium assays rely on reduction of a dye to a coloured formazan, in cell work by metabolically active cells.

A further data set has as its system 5α-reductase. Nature of the data set: In vivo effect on serum testosterone level (5α-reductase inhibitory activity), ELISA. Details: species or system Sprague Dawley rats. As to conditions: for Serum levels of Testosterone, T: Sprague Dawley male rats, intraperitoneal, Finasteride 40 mg/kg and equimolar dose of compounds, 6 hr after treatment; for effect on serum testosterone level (in words): rats, 6 hr post dose, compared to control. The procedure:
Animals (Sprague Dawley male rats weighing 150-200 g) were divided into 3 groups; vehicle (control), Finasteride (standard), treated (test sample) and each group consist of 5 animals. Sprague Dawley rats were treated intraperitoneally with Finasteride 40 mg/kg and equimolar dose of compounds. After 6 hr of treatment, blood was withdrawn by cardiac puncture under diethyl ether anesthesia and serum was separated from cells by centrifugation. Plasma testosterone values were obtained by ELISA plate reader at […] and are given in ng/ml.
The aliquots of 50 μl of each of standards, control and unknown (serum samples) were added to Testosterone Antibody coated wells. 100 μl of HRP-testosterone conjugate was added to all the wells and the plates were shaken gently on a shaker for proper mixing of the reagents. Following 4 hr of incubation at 37° C., the incubation mixture was removed. The wells were washed with phosphate buffer for 5-6 times (200 μl each time), followed by addition of 100 μl of TMB/H2O2 substrate in each of the wells. The plates were further incubated at 37° C. for 20 minutes. At the end of incubation reaction was stopped by using 100 μl of 0.5 M H2SO4 as stopping reagent. The absorbance of each well was read on Elisa plate reader at 450 nm [Rassaie, M. J.; Kumari, G. L.; Pandey, P. K.; Gupta, N.; Kochupillai, N.; Grover, P. K. Steroids 1992, 57, 288 and Hosoda, H.; Yoshida, H.; Sakai, Y.; Miyairi, S.; Nambara, T. Chem. Pharm. Bull. 1980, 28, 3035]
Intact male rats (Sprague Dawley, 200-250 g) were used in the designed study in which various compounds were compared for in vivo 5α-reductase inhibitory potency, as judged by the their ability to attenuate the conversion of testosterone into dihydrotestosterone (DHT). […] The procedure measure T equally well, and method met all the requirement of precision, accuracy, sensitivity and selectivity.
(An ELISA detects its analyte on a solid surface through an enzyme-linked reagent.)

The nature of data set [2]: In vitro cytotoxicity using mouse macrophages (acute toxicity), MTT assay. Type of data set: cell-based. As to conditions: both sexes, Balb C; mouse macrophages, from linear equation of MTT data; read-out: LC50 (concentration lethal to 50% population of cells). How it is done: (§1) All steroids were dissolved in ethanol and diluted to appropriate concentration: 0.01, 0.5, 1.0, 2.0, 5.0 μg/ml from the two stock solution of 1 mg/ml and […]. Stocks were maintained at room temperature.
(§2) […] Approximately 1 ml of Phosphate buffer saline preincubated at 37° C. was injected into cavity. The abdomen was lavaged for 10 min and fluid along with macrophages were taken out using a syringe into polypropylene tube. The phosphate solution was spun at 800 rpm for 5-10 min and cells were resuspended in 1 ml RPMI media. Cell number was counted using haemocytometer.
(§3) Cells (mouse macrophages) were plated at a density of 5×10^3 cells/well in 96 plate at 37° C. in 5% CO2. Cells were exposed in graded concentration of compounds at designated various concentration. Each concentration was tested in triplicate wells. After 48 hr fresh MTT 20 μl (1 mg/ml) was added directly to all the wells and culture was incubated for 4 hr at 37° C. During this incubation, MTT was converted into a water insoluble formazan complex by metabolic activity of viable cells. Formazan crystal were taken and dissolved in 100 μl of DMSO, which give light pink colour. The absorbance of each well was read on Elisa plate reader (Merck) at 570 nm. The spectrometer was calibrated to zero absorbance using culture medium without cells. The relative cell viability (%) related to control well containing cell culture medium without drug was calculated by [A]test/[A]control×100. % Cell Viability=[A]test/[A]control×100 [A]test=absorbance test sample [A]control=absorbance control sample Results: LC50: Concentration of the Compound in μg/ml (μm), Lethal to 50% Population of Cells.
(§4) The assay quantifies the viable cells, after […] incubation of cells with five different concentrations.

Data set [3] relates to mouse macrophages (Balb C). The data set is described as above. The conditions noted are these: both, Balb C, mouse, 48 h. Type of data set: cell-based. The procedure: as §1, §2, §3, §4

`CC(C)(C)NC(=O)[C@H]1CC[C@H]2[C@@H]3CC[C@H]4NC(=O)C=C[C@]4(C)[C@H]3CC[C@]12C` [Finasteride, reference compound]: in data set [1], the “% growth inhibition (mean ± SEM)” value worked out at 78.51 ± 4.63%, the inhibition (commonly how much of the control response was suppressed) at 0.01 µg/mL came out at 5 ± 1.58%, the inhibition at 0.5 µg/mL is 8.83 ± 8.4% and the inhibition at 1 µg/mL is 16.5 ± 2.49%. In data set [1], the inhibition at 2 µg/mL turned out to be 36 ± 8.95% and the inhibition at 5 µg/mL came to 78%. Also, in the data set on 5α-reductase, the “Serum levels of Testosterone, T” value is 1.26 ± 0.02 ng/mL and 1.26 ng/mL. In addition, the CC50 at 48 h in data set [2] was 28.2 µM. Further, in data set [3] (0.01 μg/ml), the “% viable Cells (mean ± SEM)” value was 96.45 ± 0.36%. Besides, in data set [3] (0.5 μg/ml), the “% viable Cells (mean ± SEM)” value is 94.20 ± 1.72%. The “% viable Cells (mean ± SEM)” value in data set [3] (1 μg/ml) was determined as 93.32 ± 0.59%. For the same compound, in data set [3] (2 μg/ml), the “% viable Cells (mean ± SEM)” value came out at 81.18 ± 0.20%. Moreover, in data set [3] (5 μg/ml), the “% viable Cells (mean ± SEM)” value amounted to 79.14 ± 0.312%.

As to `C[C@]12CC[C@H](OC(=O)c3ccc(O)cc3)CC1=CC[C@@H]1[C@@H]2CC[C@]2(C)C(=NO)CC[C@@H]12` [Compound 15, 17-oximino-5-androsten-3β-yl 4-hydroxybenzoate], in data set [1], the “% growth inhibition (mean ± SEM)” value worked out at 91.54 ± 0.19%, the “antiproliferative activity (in words)” value was “more potent than the reference Finasteride”, the inhibition at 0.01 µg/mL was 62.6 ± 2.46% and the inhibition at 0.5 µg/mL stood at 76.9 ± 5.94%. Further, in data set [1], the inhibition at 1 µg/mL came out at 83.08 ± 0.75%, the inhibition at 2 µg/mL was determined as 91.4 ± 1.5% and the inhibition at 5 µg/mL was greater than 90%. For the same compound, the “Serum levels of Testosterone, T” value in the data set on 5α-reductase was determined as 0.73 ng/mL. The CC50 at 48 h in data set [2] was 22 µM. Also, the “% viable Cells (mean ± SEM)” value in data set [3] (0.01 μg/ml) was determined as 89.80 ± 2.95%. Besides, the “% viable Cells (mean ± SEM)” value in data set [3] (0.5 μg/ml) came out at 81.02 ± 2.83%. The “% viable Cells (mean ± SEM)” value in data set [3] (1 μg/ml) was found to be 63.99 ± 0.91%. For the same compound, the “% viable Cells (mean ± SEM)” value in data set [3] (2 μg/ml) is on record as 56.88 ± 0.39%. Further, the “% viable Cells (mean ± SEM)” value in data set [3] (5 μg/ml) turned out to be 55.36 ± 0.19%.

Take `C[C@]12CC[C@H](OC(=O)c3ccc(Cl)cc3)CC1=CC[C@@H]1[C@@H]2CC[C@]2(C)C(=NO)CC[C@@H]12` [Compound 10, 17-oximino-5-androsten-3β-yl 4-chlorobenzoate]: in data set [1], the “% growth inhibition (mean ± SEM)” value is given as 84.47 ± 0.74%, the “antiproliferative activity (in words)” value is listed as “relatively less activity than above compounds but still better than Finasteride”, the inhibition at 0.01 µg/mL amounted to 43.4 ± 0.77% and the inhibition at 0.5 µg/mL worked out at 57.1 ± 5.96%. In addition, in data set [1], the inhibition at 1 µg/mL came to 64.9 ± 7.4%, the inhibition at 2 µg/mL amounted to 69.2 ± 7.48% and the inhibition at 5 µg/mL lay within 81 to 84%. In addition, in the data set on 5α-reductase, the “Serum levels of Testosterone, T” value was determined as 0.95 ng/mL and the “effect on serum testosterone level (in words)” value is reported as “loss of activity”. Moreover, the CC50 at 48 h in data set [2] is 24 µM. For the same compound, the “% viable Cells (mean ± SEM)” value in data set [3] (0.01 μg/ml) came out at 88.22 ± 0.41%. The “% viable Cells (mean ± SEM)” value in data set [3] (0.5 μg/ml) is 87.21 ± 0.46%. In addition, the “% viable Cells (mean ± SEM)” value in data set [3] (1 μg/ml) is reported as 77.40 ± 0.43%. For the same compound, the “% viable Cells (mean ± SEM)” value in data set [3] (2 μg/ml) came to 77.14 ± 0.21%. The “% viable Cells (mean ± SEM)” value in data set [3] (5 μg/ml) is recorded as 73.149 ± 0.13%.

On to `Cc1ccc(C(=O)O[C@H]2CC[C@@]3(C)C(=CC[C@@H]4[C@@H]3CC[C@]3(C)C(=NO)CC[C@@H]43)C2)cc1` [Compound 12, 17-oximino-5-androsten-3β-yl 4-methylbenzoate], for which, in data set [1], the “% growth inhibition (mean ± SEM)” value was found to be 92.94 ± 0.13%, the “antiproliferative activity (in words)” value is given as “more potent than the reference Finasteride”, the inhibition at 0.01 µg/mL is 42.6 ± 2.21% and the inhibition at 0.5 µg/mL is 63 ± 4.78%. In data set [1], the inhibition at 1 µg/mL was determined as 85 ± 3.99%, the inhibition at 2 µg/mL amounted to 89.5 ± 0.96% and the inhibition at 5 µg/mL was greater than 90%. Besides, in the data set with 5α-reductase, the “Serum levels of Testosterone, T” value came to 1.16 ng/mL and the “effect on serum testosterone level (in words)” value is listed as “increased activity”. The CC50 at 48 h in data set [2] was determined as 22 µM. Also, the “% viable Cells (mean ± SEM)” value in data set [3] (0.01 μg/ml) is 79.39 ± 0.77%. The “% viable Cells (mean ± SEM)” value in data set [3] (0.5 μg/ml) was 77.46 ± 0.75%. Besides, the “% viable Cells (mean ± SEM)” value in data set [3] (1 μg/ml) came out at 73.03 ± 0.36%. The “% viable Cells (mean ± SEM)” value in data set [3] (2 μg/ml) is 69.10 ± 0.84%. Further, the “% viable Cells (mean ± SEM)” value in data set [3] (5 μg/ml) is given as 65.26 ± 2.79%.
